Laboratory results reported in PubChem BioAssay AID179 (DTP/NCI, 2004).
Calls of active or inactive are those of the source.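 Rule for the calls: active = compounds giving half or more protection of infected cells from virus-caused growth loss, again on retest; inactive = the rest.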

Test system: CEM cells HIV-1 protection, formazan growth assay
Assay: NCI AIDS Antiviral Assay
Conditions: for IC50: measured here: growth of uninfected CEM cells
Method in brief: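 Protection of CEM cells against HIV-1 was scored from cell growth (soluble formazan) across five concentrations, with parallel uninfected cells. Lack of protection may reflect toxicity.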

SMILES | EC50 [µM] | IC50 [µM] | outcome
COc1ccc(C(NS(=O)(=O)c2ccc(C)cc2)c2c(C(CBr)OC)c3ccccc3n2S(=O)(=O)c2ccccc2)cc1OC (centres undefined) | > 151 | 31.6 | 
O=S(O)CCCCSSCCCCS(=O)(O)=S |  |  | inactive
OCC1CC(F)C(n2cnc3c(NO)ncnc32)O1 (centres undefined) | > 151 | > 151 | 
CN(C)c1ccc(C(=CC=C2C(=O)c3ccccc3C2=O)c2ccc(N(C)C)cc2)cc1 | > 11.2 | > 11.2 | 
C1CCC(OCC2(COC3CCCCO3)CCCCO2)OC1 (centres undefined) | > 200 | > 200 | 
CC(=S)N=Cc1c(C)[nH]n(-c2ccccc2)c1=O | > 100 | 41.7 | 
O=C(Cn1c(=O)cc(Nc2ccccc2)c2ccccc21)Nc1ccccc1 | > 200 | 89.1 | 
COc1cc2c(cc1OC)C(C(CBr)CBr)N(C1CCCC1)CC2 (centres undefined) | > 389 | > 389 | 
O=P(O)(CN1CCN(CP(=O)(O)c2ccccc2)CCN(CP(=O)(O)c2ccccc2)CC1)c1ccccc1 | > 200 | 4.07 | 
Cn1c(=O)c2c(nc(N)n2C2OC(CO)C(O)C2O)n(C)c1=O (centres undefined) | > 200 | > 200 | 
COc1ccc(-c2c(C)oc3cc(OC(C)=O)ccc3c2=O)cc1 | > 200 | 30.9 | 
O=c1[nH]c2cc([N+](=O)[O-])ccc2nc1/C(=N/Nc1ccccc1)C(O)c1ccc(Cl)cc1Cl (centres undefined) | > 269 | 148 | 
CC1(C)C2CC3OC3(C)C1C2 (centres undefined) | > 200 | > 200 | 
CCCCNC(=O)CNC(=O)c1ccccc1SC(=O)CCCC[n+]1ccccc1 | > 200 | 9.33 | 
CCOP(=O)(CC1CC(O)(CNc2cc(Cl)nc(N)n2)C1)OCC (centres undefined) | > 200 | > 200 | 
CNCCN=c1ccc2c3c1c(O)c1c(O)ccc(=O)c1c3[nH]n2CCNCCO | > 112 | 0.347 | 
CC1CCC2(CCN(CCCN(C)C)CC2)C1 (centres undefined) |  |  | inactive
O=C(O)C(CS)NCc1c2ccccc2[n+]([O-])c2ccccc12 (centres undefined) |  |  | inactive
C/C=C/CC1(CC)Oc2cccnc2-n2cccc2C1=O (centres undefined) | > 200 | > 100 | 
O=c1cc(-c2ccccc2)oc2cc(O)cc(O)c12 | > 87.1 | 38 | 
COc1cc(C)cc2c1C(=O)C(NC(C)=O)=CC2=O | > 200 | 11.7 | 
Fc1ccc(OCc2nc3cc(C(F)(F)F)ccc3nc2-c2ccccc2)cc1 | > 200 | 138 | 

SMILES | EC50 [µM] | IC50 [µM] | outcome
Nc1nc(Cl)c(N)c(NCC2(CO)CC(CCCc3ccccc3)C2)n1 (centres undefined) | > 0.2 | 0.186 | 
CC(=O)c1sc2c(c1OC(=O)c1cccs1)c(=O)n(-c1ccccc1)c(=S)n2-c1ccccc1 | > 200 | 3.8 | 
CC1=NN(C(=O)CC(=O)Nc2ccccc2)C(=O)C1N=Nc1ccc(S(N)(=O)=O)cc1 (centres undefined) | > 151 | 75.9 | 
Cc1c(CN2CCOCC2)c(CN2CCOCC2)c(C)n1-c1ccc(Cl)cn1 | > 200 | > 200 | 
Cc1ccc(NC(=O)C2C(=O)C(=O)N(c3ccc(C)cc3)C2=O)cc1 (centres undefined) | > 15.5 | > 15.5 | 
CCn1cc(C(=O)O)c(=O)c2ccc(-c3ccncc3)cc21 |  |  | inactive
Cc1ccc(-n2cc(-c3ccc(Cl)cc3)c(C#N)c2N)cc1 | > 200 | 22.4 | 
COC(=O)C1=CC2OC1(C)C1(CC1)C2=O (centres undefined) |  |  | inactive
CC(=O)CC(=O)N(CCN(C(=O)CC(C)=O)c1ccccc1)c1ccccc1 | > 178 | > 178 | 
Nc1ccc(S(=O)(=O)Nc2nc3ccccc3nc2N2CCCCCC2)cc1 | > 200 | 33.1 | 
O=C(NCCOC(=O)CCCCCCCCC(=O)OCCNC(=O)NC(=O)c1cn(Cc2ccccc2)c(=O)[nH]c1=O)NC(=O)c1cn(Cc2ccccc2)c(=O)[nH]c1=O | > 43.7 | > 43.7 | 
CCCCCCCCCCCCCCCCCCCCCCNc1ccn(C2CC(OP(=O)(O)OCC3OC(n4cc(C)c(=O)[nH]c4=O)CC3N=[N+]=[N-])C(COP(=O)(O)OCC3CCC(n4ccc(N)nc4=O)O3)O2)c(=O)n1 (centres undefined) | 0.234 | 38 | 
COC(=O)C1(C)CCCC2(C)C1CCC13OCC(CC21)C1(C(C)C)OC31 (centres undefined) |  |  | inactive
CCCC1(C)OC(=O)C(c2ccccc2)O1 (centres undefined) | > 200 | > 200 | 
Cc1cc(NCCCCCCNc2cc(C)nc3ccc(Cl)cc23)c2cc(Cl)ccc2n1 | > 6.92 | > 6.92 | 
O=C(O)C1SCCCS1 | > 1510 | > 1510 | 
C1=CC2C=CC(C=C1)[PH+]2c1ccccc1.[C-]#[O+].[C-]#[O+].[C-]#[O+].[C-]#[O+].[C-]#[O+].[Cr] (centres undefined) | > 6.76 | > 6.76 | 
NC(N)=NS(=O)(=O)c1ccc(Nc2c3ccccc3nc3c(C(=O)NC(CO)(CO)CO)cccc23)cc1 | > 200 | 3.31 | 
CCOC(=O)C(Sc1ccccc1)c1c(OC)cc(=O)oc1/C=[N+](/[O-])c1ccc(N(C)C)cc1 (centres undefined) |  |  | inactive
CC1(C)C(=O)N2CCSC21 (centres undefined) | > 16.6 | > 16.6 | 
COC(=O)CN1CCN(c2cccc3c2CCCC3)CC1 | > 200 | 64.6 | 
CN1CCN(c2cc3nc(-c4ccc(Cl)cc4)[nH]c3cc2F)CC1 | > 200 | 11.5 | 

SMILES | EC50 [µM] | IC50 [µM] | outcome
CCN(CC)CCOc1ccccc1/C=C/c1noc2ccccc12 | > 200 | 29.5 | 
N#CC12CCC1C1CCCCC12N1CCSCC1 (centres undefined) |  |  | inactive
NC(N)=NS(=O)(=O)c1ccc(Nc2c3ccccc3nc3c(C(=O)NCCO)cccc23)cc1 | > 200 | 8.91 | 
CCCCCC/C(CC(=O)CCC(=O)NCCc1ccccc1)=N\NC(=O)c1ccc2ccccc2c1O | > 251 | 14.5 | 
CCc1c(O)c2c([nH]c1=O)SC(C)(C)CC2=NCC(C)C | > 11.5 | > 11.5 | 
C=CCCC1CCCNC1=S (centres undefined) | > 776 | 708 | 
COc1cc(C2c3cc4c(cc3OC(N3CCCCC3)C2C)OCO4)cc(OC)c1OC (centres undefined) | > 50.1 | 0.398 | 
COc1ccc(C2SC(N)=Nc3c2c(C)nn3C(=O)c2ccncc2)cc1 (centres undefined) | > 200 | 110 | 
O=C(O)CCC1CCc2cccc3occ1c23 (centres undefined) |  |  | inactive
O=C1c2ccccc2-c2nnc(-c3ccc([N+](=O)[O-])cc3)cc21 | > 100 | > 100 | 
CC(NC(=O)OCc1ccccc1)NC(=O)C(CC(=O)OC(C)(C)C)NC(=O)OC(C)(C)C (centres undefined) | > 200 | > 200 | 
CCOC(=O)C(C)(C)C(OP(OCC)OCC)=C(C)C | > 589 | > 589 | 
C=C1CC(CCCl)(c2ccccc2)OC1=O (centres undefined) | > 41.7 | 6.46 | 
C=C(Br)N(CC)CC | > 251 | > 251 | 
CCCCOC(=O)NC(Nc1ccc(S(=O)(=O)Nc2ncccn2)cc1)(C(F)(F)F)C(F)(F)F | > 200 | > 200 | 
CCSCCCN(CCCSCC)CCCSCC | > 155 | > 155 | 
CCCCCCCCCCCCCCCc1cc(=O)c2c(O)cc(O)cc2o1 |  |  | inactive
COc1ccc(OC)c2cc(Cc3ccc(N(C)C)cc3)c(=O)c(Cc3ccc(N(C)C)cc3)cc12 | > 200 | 43.7 | 
CN1C(=O)/C(=C2\SC(=O)N(CN3CCOCC3)C2=O)c2ccccc21 | > 200 | 37.2 | 
CC(=O)OC1C(=O)C(O)C(C)OC1O[C@@H]1C[C@@]2(C)[C@@H]3CC=C4[C@@H](C[C@H](O)C(=O)C4(C)C)[C@]3(C)C(=O)C[C@]2(C)[C@H]1[C@@](C)(O)C(=O)/C=C/C(C)(C)O (some centres undefined) | > 0.501 | 0.0832 | 
CN1CSC(=S)N(C)C1 | > 200 | 13.2 | 
O=[N+]([O-])c1ccc(-c2nnc(C34CC5CC(CC(C5)C3)C4)o2)cc1 | > 200 | > 200 | 

SMILES | EC50 [µM] | IC50 [µM] | outcome
CN(C)CCSc1ccc(-c2ccc(-c3ccc(SCCN(C)C)cc3)nn2)cc1 | 6.92 | 8.13 | 
CC(O)C(O)C(N)CC=O (centres undefined) | > 200 | > 200 | 
O=c1cc(-c2ccccc2)oc2cc(Oc3nnnn3-c3ccccc3)ccc12 | > 200 | 42.7 | 
N#CC(C#N)=C1NC(=O)C(c2ccccc2)C(=O)N1 (centres undefined) |  |  | inactive
O=C(/C=C/c1ccc(O)c(O)c1)OCC(OC(=O)/C=C/c1ccc(O)c(O)c1)C(=O)O (centres undefined) | > 200 | 28.2 | 
CN(C)C(=O)OC1C(=O)N(C)c2ccc(Cl)cc2C2(c3ccccc3)N1C2(Cl)Cl (centres undefined) | > 200 | 10.7 | 
CC(C)(O)c1cc2c(cc1C(C)(C)O)-c1ccccc1-2 | > 200 | > 200 | 
COc1ccc(OC)c2c(=O)c3ccccc3[nH]c12 |  |  | inactive
O=C(c1ccccc1)c1ccc2c(c1)N=C(c1ccc(Cl)c(Cl)c1)CC(c1ccc3ccccc3c1)N2 (centres undefined) | > 13.8 | > 13.8 | 
CCCCCCCCCCCCCCCCCC(=O)O[C@H](COC(=O)CCCCCCCCCCC)COC(=O)CCCCCCCCCCCCCCC | > 100 | > 100 | 
COc1ccc(/C=C2\CSC(=O)NC2=O)cc1OC | > 891 | 240 | 
NCCCCN(CCCN)C(=O)OCc1ccccc1 | > 200 | > 200 | 
C=CCCCC(C#N)(c1ccccc1)N1CCCC1 (centres undefined) |  |  | inactive
O=C(O)c1nc2sc(C(=O)O)nc2s1 |  |  | inactive
Cc1nc2ccc(S(=O)(=O)Nc3nccs3)cc2c(=O)n1NS(=O)(=O)c1nccs1 | > 200 | 49 | 
CCOC(=O)NC(=O)c1cn(CCCOC(=O)NCCCCCCNC(=O)OCCCn2c(=O)c(C(=O)NC(=O)OCC)cn(C)c2=O)c(=O)n(C)c1=O | > 33.9 | > 33.9 | 
CN(C)C(=S)/N=c1\ss/c(=N\S(=O)(=O)c2ccccc2)n1N(C)C |  |  | inactive
COC(=O)C1=C(C(=O)OC)SC(=C2c3ccsc3-c3sccc32)S1 | > 200 | > 200 | 
COC(=O)C1=C(C(=O)OC)C2CCC1CC2=O (centres undefined) | > 200 | 44.7 | 
c1cnc(NCCSSCCNc2ncccn2)nc1 | > 200 | 38 | 
ClC(=C(c1ccc(OC2CCCCO2)cc1)c1ccc(OC2CCCCO2)cc1)c1ccccc1 (centres undefined) | > 100 | 87.1 | 
